6 compounds from ChEMBL document CHEMBL3102731, “Structure-activity relationship studies and biological characterization of human NAD(+)-dependent 15-hydroxyprostaglandin dehydrogenase inhibitors” (Bioorg Med Chem Lett, 2014) can be followed below.

The subject of series [1] is LNCaP. Put plainly: Induction of PGE2 production in human LNCAP cells at 41.9 nM to 100 uM after 16 hrs by HTRF assay relative to control. It is filed as functional. On the technique in general: TR-FRET usually uses a lanthanide donor and a delayed reading to cut background.
Series [2] has as its system LNCaP. The series can be described thus: Induction of PGE2 production in human LNCAP cells assessed as half-maximal activation concentration after 16 hrs by HTRF assay. It is filed as functional, cell-based.
The subject of series [3] is A549. Put plainly: Induction of PGE2 production in human A549 cells at 775 pM to 45.8 uM after 4 to 20 hrs by HTRF assay relative to control. It is filed as functional.
The subject of series [4] is A549. Put plainly: Induction of PGE2 production in human A549 cells assessed as concentration required for half-maximal activation after 4 to 20 hrs by HTRF assay. It counts as functional, cell-based.
Series [5] deals with T1, Aldehyde dehydrogenase 1A1 (Homo sapiens, UniProt P00352).
T1 sequence (P00352 whole entry): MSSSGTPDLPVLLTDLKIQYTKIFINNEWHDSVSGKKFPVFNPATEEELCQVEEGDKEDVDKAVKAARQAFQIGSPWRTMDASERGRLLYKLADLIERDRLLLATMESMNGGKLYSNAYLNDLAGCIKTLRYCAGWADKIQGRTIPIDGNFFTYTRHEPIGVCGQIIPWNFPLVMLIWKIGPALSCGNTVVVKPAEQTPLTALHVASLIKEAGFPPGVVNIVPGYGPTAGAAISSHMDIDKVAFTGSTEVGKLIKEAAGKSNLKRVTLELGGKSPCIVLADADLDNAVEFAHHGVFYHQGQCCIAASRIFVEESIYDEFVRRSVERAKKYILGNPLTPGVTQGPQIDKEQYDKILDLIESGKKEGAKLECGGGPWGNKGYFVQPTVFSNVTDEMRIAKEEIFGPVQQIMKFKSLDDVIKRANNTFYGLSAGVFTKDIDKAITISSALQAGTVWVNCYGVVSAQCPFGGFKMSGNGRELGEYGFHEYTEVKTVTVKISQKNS
Put plainly: Inhibition of ALDH1A1 (unknown origin) using NAD+/propionaldehyde as substrate after 15 mins by UV-fluorescence assay.

Series [6] addresses T2, Peroxisomal multifunctional enzyme type 2 (Homo sapiens, UniProt P51659).
T2 sequence (P51659 whole entry): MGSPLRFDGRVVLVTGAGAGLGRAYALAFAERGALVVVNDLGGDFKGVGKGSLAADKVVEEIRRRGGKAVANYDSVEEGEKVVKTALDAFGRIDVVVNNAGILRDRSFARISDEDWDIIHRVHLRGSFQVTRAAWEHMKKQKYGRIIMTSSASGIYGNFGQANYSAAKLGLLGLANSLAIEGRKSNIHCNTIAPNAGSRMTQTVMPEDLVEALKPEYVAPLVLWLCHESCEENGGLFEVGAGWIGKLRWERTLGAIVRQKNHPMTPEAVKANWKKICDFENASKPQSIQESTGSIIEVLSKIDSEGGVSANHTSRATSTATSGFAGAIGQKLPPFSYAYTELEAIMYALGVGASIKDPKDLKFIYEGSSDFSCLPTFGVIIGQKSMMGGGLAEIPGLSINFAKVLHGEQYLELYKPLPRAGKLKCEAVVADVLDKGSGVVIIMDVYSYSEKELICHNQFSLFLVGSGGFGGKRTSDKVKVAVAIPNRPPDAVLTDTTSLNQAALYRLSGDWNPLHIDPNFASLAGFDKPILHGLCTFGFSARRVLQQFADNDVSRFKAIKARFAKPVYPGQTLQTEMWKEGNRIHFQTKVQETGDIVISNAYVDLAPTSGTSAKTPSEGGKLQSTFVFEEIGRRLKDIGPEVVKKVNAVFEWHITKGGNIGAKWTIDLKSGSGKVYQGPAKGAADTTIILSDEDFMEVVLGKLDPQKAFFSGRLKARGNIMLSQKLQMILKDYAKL
Put plainly: Inhibition of HSD17beta4 (unknown origin) using NAD+/estradiol as substrate at 324 pM to 57.2 uM after 15 mins by UV-fluorescence assay.

The target in series [7] is L-lactate dehydrogenase B chain (Homo sapiens, UniProt P07195). Put plainly: Inhibition of LDHB (unknown origin) using sodium pyruvate as substrate at 0.46 to 57.5 uM after 15 mins by fluorescence assay.
Sequence of L-lactate dehydrogenase B chain (P07195 whole entry): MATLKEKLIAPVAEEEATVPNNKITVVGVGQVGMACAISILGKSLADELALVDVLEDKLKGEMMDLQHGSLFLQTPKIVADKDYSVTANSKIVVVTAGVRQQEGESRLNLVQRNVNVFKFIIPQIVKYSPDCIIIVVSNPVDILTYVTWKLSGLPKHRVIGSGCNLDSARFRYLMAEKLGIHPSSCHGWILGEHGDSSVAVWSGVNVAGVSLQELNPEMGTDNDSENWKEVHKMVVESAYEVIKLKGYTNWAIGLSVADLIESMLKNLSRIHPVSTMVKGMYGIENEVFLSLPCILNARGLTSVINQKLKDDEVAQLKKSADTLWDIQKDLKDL
Series [8] has as its target L-lactate dehydrogenase A chain (Homo sapiens, UniProt P00338). The series can be described thus: Inhibition of LDHA (unknown origin) using sodium pyruvate as substrate at 0.46 to 57.5 uM after 15 mins by fluorescence assay.
Series [9] concerns the target Glyceraldehyde-3-phosphate dehydrogenase (Oryctolagus cuniculus, UniProt P46406). Put plainly: Inhibition of rabbit muscle GAPDH using glyceraldehyde-3-phosphate as substrate at 324 pM to 57.2 uM by fluorescence assay.
Series [10] can be described thus: Kinetic solubility of the compound in PBS buffer at pH 7.4. It is filed as physicochemical.
A further series has as its system Liver microsome. Put plainly: Half life in rat liver microsomes in presence of NADPH. It counts as ADME.
Series [11] in a line: Passive permeability of the compound at pH 7.4 by PAMPA. It counts as ADME.
Series [12] deals with T3, 15-hydroxyprostaglandin dehydrogenase [NAD(+)] (Homo sapiens, UniProt P15428).
T3 sequence (P15428 whole entry): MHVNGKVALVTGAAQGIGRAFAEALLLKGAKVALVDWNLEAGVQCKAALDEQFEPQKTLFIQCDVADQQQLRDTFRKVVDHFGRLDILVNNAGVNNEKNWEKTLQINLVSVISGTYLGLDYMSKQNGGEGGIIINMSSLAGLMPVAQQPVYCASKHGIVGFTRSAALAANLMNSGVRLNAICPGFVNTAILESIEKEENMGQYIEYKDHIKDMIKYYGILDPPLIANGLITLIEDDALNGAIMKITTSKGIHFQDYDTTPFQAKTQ
The series can be described thus: Inhibition of human HPGD using PGE2 as substrate after 15 mins by fluorescence assay.

Sequence of Glyceraldehyde-3-phosphate dehydrogenase (P46406 whole entry): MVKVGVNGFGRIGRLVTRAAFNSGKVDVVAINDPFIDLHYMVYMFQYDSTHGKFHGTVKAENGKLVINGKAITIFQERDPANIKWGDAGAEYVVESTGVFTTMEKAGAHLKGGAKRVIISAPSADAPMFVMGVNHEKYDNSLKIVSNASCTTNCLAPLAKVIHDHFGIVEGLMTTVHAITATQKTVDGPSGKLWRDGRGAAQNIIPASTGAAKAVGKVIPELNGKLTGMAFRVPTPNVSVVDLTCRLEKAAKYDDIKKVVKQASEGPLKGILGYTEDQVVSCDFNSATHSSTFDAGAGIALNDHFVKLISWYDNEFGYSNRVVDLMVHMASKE

Regarding `Cc1cc(-c2nnc3n2CCCCC3)c(C)n1-c1ccc(Cl)c(Cl)c1`, the results for the Activity in the series on LNCaP [1] and with A549 [3] were 105% and 110%, respectively. Also, the half-maximal activity concentration (AC50) (in general, the concentration giving half of the maximal activity seen) in the series on LNCaP [2] is 352 nM; in the series with A549 [4] it was 296 nM. The IC50 (as a rule, the midpoint of a concentration-inhibition curve) in series [5] is 607 nM; in [6], “Not Active”; in series [7], “Not Active”; in series [8], “Not Active”; in [9], “Not Active”; in series [12], 22 nM. This compound also came in with a Kinetic_solubility in series [10] of 32 µM. The t1/2 with Liver microsome was 1.9 min. In series [11], this compound displayed a permeability of 1650 ×10⁻⁶ cm/s.

Take `Cc1cc(-c2nnc3n2CCCCC3)c(C)n1-c1cccc(Cl)c1`: the Activity is 68% with LNCaP [1] and 114% in the series on A549 [3]. Also, the AC50 with LNCaP [2] came to 558 nM; in the series on A549 [4] it was 590 nM. For the same compound, the IC50 is 4820 nM in series [5]; “Not Active” in series [6]; “Not Active” in series [7]; “Not Active” in series [8]; “Not Active” in [9]; 34 nM in series [12]. Besides, the Kinetic_solubility in series [10] turned out to be 37 µM. Besides, in the series on Liver microsome, the t1/2 was determined as 2 min. This compound also displayed a permeability in series [11] of 1100 ×10⁻⁶ cm/s.

In the case of `Cc1cc(-c2nnc3n2CCCCC3)c(C)n1-c1cccc(C(F)(F)F)c1`, the Activity in the series with LNCaP [1] is 44%; in the series with A549 [3], 145%. The AC50 with LNCaP [2] was 2220 nM; in the series with A549 [4], 2090 nM. Moreover, the IC50 was 1520 nM in [5]; “Not Active” in series [6]; “Not Active” in series [7]; “Not Active” in series [8]; “Not Active” in series [9]; 48 nM in series [12]. Further, the Kinetic_solubility in series [10] worked out at 33 µM. Moreover, the t1/2 with Liver microsome is listed as 1.9 min. This compound also came in with a permeability in [11] of 1510 ×10⁻⁶ cm/s.

Take `Cc1ccc(-n2c(C)cc(-c3nnc4n3CCCCC4)c2C)cc1`: the Activity with LNCaP [1] was determined as 71%; in the series on A549 [3], 107%. In addition, the AC50 in the series with LNCaP [2] was 703 nM; in the series on A549 [4] it was 166 nM. Moreover, the IC50 in [5] is 2410 nM; in series [6] it was “Not Active”; in [7] it was “Not Active”; in series [8] it was “Not Active”; in series [9], “Not Active”; in series [12] it was 34 nM. In addition, the Kinetic_solubility in [10] amounted to 28 µM. The t1/2 in the series on Liver microsome was determined as 1.8 min. In series [11], the permeability was 1330 ×10⁻⁶ cm/s.

For the compound `Cc1cc(-c2nnc3n2CCCCC3)c(C)n1-c1cccc(C#N)c1`, the Activity is 63% with LNCaP [1] and 350% in the series with A549 [3]. Moreover, the results for the concentration at half-maximal activity (AC50) in the series with LNCaP [2] and in the series with A549 [4] were 1770 nM and 2640 nM, respectively. For the same compound, the IC50 was 6810 nM in [5]; “Not Active” in [6]; “Not Active” in series [7]; “Not Active” in series [8]; “Not Active” in [9]; 76 nM in [12]. In addition, in series [10], the Kinetic_solubility is over 49 µM. In the series on Liver microsome, the t1/2 stood at 8.1 min. For the same compound, the permeability in series [11] is 229 ×10⁻⁶ cm/s.

Take `Cc1cccc(-n2cnc3cc(C(=O)N4CCCC(C)(C)C4)ccc32)c1`: the values for the Activity with LNCaP [1] and in the series with A549 [3] were 53% and 127%, respectively. Further, the AC50 in the series on LNCaP [2] is 4430 nM; in the series with A549 [4], 743 nM. The IC50 is 1920 nM in series [5]; “Not Active” in series [6]; “Not Active” in series [7]; “Not Active” in [8]; “Not Active” in series [9]; 68 nM in series [12]. In series [10], this compound displayed a Kinetic_solubility of 5.6 µM. Also, the t1/2 in the series on Liver microsome is reported as 1.8 min. The compound further had a permeability in series [11] of 2260 ×10⁻⁶ cm/s.
